Reference: ChEMBL document CHEMBL1144426, “Adenosine kinase inhibitors. 4. 6,8-Disubstituted purine nucleoside derivatives. Synthesis, conformation, and enzyme inhibition” (J Med Chem, 2005)
pIC50: −log10 of the molar value.

Target: Adenosine kinase (Homo sapiens, UniProt P55263)
Assay: Inhibitory activity against Human Recombinant Adenosine Kinase

Adenosine kinase, sequence (P55263 whole entry): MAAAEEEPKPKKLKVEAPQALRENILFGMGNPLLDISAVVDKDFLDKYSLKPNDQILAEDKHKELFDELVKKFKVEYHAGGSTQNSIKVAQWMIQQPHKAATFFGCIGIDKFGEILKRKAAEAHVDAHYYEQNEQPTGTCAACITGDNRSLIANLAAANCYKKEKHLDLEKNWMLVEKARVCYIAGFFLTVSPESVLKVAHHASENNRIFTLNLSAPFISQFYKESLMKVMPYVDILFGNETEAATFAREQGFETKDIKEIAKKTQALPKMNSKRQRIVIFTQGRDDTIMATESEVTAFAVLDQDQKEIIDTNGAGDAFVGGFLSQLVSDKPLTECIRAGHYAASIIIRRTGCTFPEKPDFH

First: CCc1nc2c(N3CCc4ccccc43)ncnc2n1[C@@H]1O[C@H](CO)[C@@H](O)[C@H]1O
Second: OC[C@H]1O[C@@H](n2c(Cl)nc3c(N4CCc5ccccc54)ncnc32)[C@H](O)[C@@H]1O
The pIC50 of the first is 0.32 log units higher: 6.64 for the first, 6.32 for the second. The first is the more potent here.

`OC[C@H]1O[C@@H](n2c(Cl)nc3c(Nc4ccccc4)ncnc32)[C@H](O)[C@@H]1O` and `OC[C@H]1O[C@@H](n2c(I)nc3c(Nc4ccccc4)ncnc32)[C@H](O)[C@@H]1O` are within 0.2 log units of each other in pIC50: 5.44 for the first, 5.35 for the second.

First: C[C@H]1O[C@@H](n2cc(-c3ccccc3)c3c(N4CCc5ccccc54)ncnc32)[C@H](O)[C@@H]1O
Second: C[C@H]1O[C@@H](n2c(Nc3ccccc3)nc3c(N4CCc5ccccc54)ncnc32)[C@H](O)[C@@H]1O
The pIC50 of the first is 0.59 log units higher: 7.29 for the first, 6.70 for the second. The first is the more potent here.

Compared with `C=Cc1nc2c(N3CCc4ccccc43)ncnc2n1[C@@H]1O[C@H](CO)[C@@H](O)[C@H]1O`, `OC[C@H]1O[C@@H](n2c(I)nc3c(N4CCc5ccccc54)ncnc32)[C@H](O)[C@@H]1O` is 1.22 log units lower in pIC50: 7.22 for the first, 6.00 for the second.

Compared with `OC[C@H]1O[C@@H](n2cnc3c(N4CCc5ccccc54)ncnc32)[C@H](O)[C@@H]1O`, `C#Cc1nc2c(N3CCc4ccccc43)ncnc2n1[C@@H]1O[C@H](CO)[C@@H](O)[C@H]1O` is 0.30 log units lower in pIC50: 6.30 for the first, 6.00 for the second.

Compared with `OC[C@H]1O[C@@H](n2c(N3CCc4ccccc43)nc3c(Nc4ccccc4)ncnc32)[C@H](O)[C@@H]1O`, `OC[C@H]1O[C@@H](n2c(Nc3ccccc3)nc3c(N4CCc5ccccc54)ncnc32)[C@H](O)[C@@H]1O` is 2.57 log units higher in pIC50: 5.15 for the first, 7.72 for the second.

Compared with `OC[C@H]1O[C@@H](n2c(-c3ccco3)nc3c(Nc4ccccc4)ncnc32)[C@H](O)[C@@H]1O`, `C=Cc1nc2c(Nc3ccccc3)ncnc2n1[C@@H]1O[C@H](CO)[C@@H](O)[C@H]1O` is 1.36 log units higher in pIC50: 5.16 for the first, 6.52 for the second. The second is the more potent here.

Compared with `OC[C@H]1O[C@@H](n2c(Nc3ccccc3)nc3c(Nc4ccccc4)ncnc32)[C@H](O)[C@@H]1O`, `CSc1nc2c(Nc3ccccc3)ncnc2n1[C@@H]1O[C@H](CO)[C@@H](O)[C@H]1O` is 1.05 log units lower in pIC50: 7.05 for the first, 6.00 for the second. The first is the more potent here.

First: OC[C@H]1O[C@@H](n2c(-c3ccco3)nc3c(N4CCc5ccccc54)ncnc32)[C@H](O)[C@@H]1O
Second: CSc1nc2c(N3CCc4ccccc43)ncnc2n1[C@@H]1O[C@H](CO)[C@@H](O)[C@H]1O
The pIC50 of the first is 1.28 log units lower: 5.54 for the first, 6.82 for the second.

For `OC[C@H]1O[C@@H](n2c(N3CCc4ccccc43)nc3c(N4CCc5ccccc54)ncnc32)[C@H](O)[C@@H]1O`, the pIC50 was 5.70.
